Earlier results in patent publication US5693668A, “Acetylcholinesterase inhibitors” (priority 1989, dated 1997).

Settings: Bronaugh and Stewart, J. Pharm. Sci. 1984; cited from earlier work

In the case of “polyethylene glycol 20 Oleyl ether [PEG 20 oleyl ether]”, the “effect on integrity or permeation characteristics of the skin” value is given as “not found to affect the integrity or the permeation characteristics of the skin”.
